Reference: the NIST ThermoML archive (doi:10.1016/j.jct.2016.03.025)
Numbers after ± are expanded uncertainties.

Legend:
[1] = 293.15 K; 101.33 kPa; Liquid; Vibrating tube method
[2] = refractive index (Na D-line) (dimensionless); settings: 293.15 K; 101.33 kPa; Liquid; Standard Abbe refractometry
[3] = refractive index (Na D-line) (dimensionless); wn = mass fraction of the nth substance listed; settings: 293.15 K; 101.3 kPa; Liquid; Standard Abbe refractometry; w1 = 0.85
[4] = wn = mass fraction of the nth substance listed; settings: 293.15 K; 101.3 kPa; Liquid; Vibrating tube method; w1 = 0.85

mass density [1] | refractive index [2] | refractive index [3] | mass density [4] | Structure (SMILES)
970.1 ± 1.2 kg/m3 | 1.4425 ± 0.0011 |  |  | CC(=O)OC1CCCCC1 [cyclohexyl ethanoate]
 |  | 1.4345 ± 0.001 | 1682.8 ± 1 kg/m3 | O=P(O)(O)O [phosphoric acid] + O
873.3 ± 1.2 kg/m3 | 1.4096 ± 0.0011 |  |  | CCCCCCOC(C)=O [hexyl ethanoate]
998.3 ± 1 kg/m3 | 1.333 ± 0.001 |  |  | O [water]
